Measured values as given in patent US20120270935A1, “FORMULATIONS” (priority 2009, published 2012).
≈ marks a conversion by molar mass, not a printed value. Like-named read-outs stand apart in the source and are kept apart here.

Assays:
C. striatum NCTC 764 = assay: MBC assay; type: cell-based, Corynebacterium striatum; settings: triplicate
Text: (a) staphylococci. The Staphylococcus aureus strain used was ATCC 29213. S. aureus and other staphylococci are common causes of a wide range of skin, skin structure and wound infections; S. aureus is also known to exacerbate eczema. The ATCC 29213 strain is known to be susceptible to beta-lactam antibiotics such as methicillin. The Staphylococcus epidermidis strain used was NCTC 11047. Staph. epidermidis forms part of the resident flora of skin and is an opportunistic pathogen which can cause biofilms to grow for instance on plastic surgical implants such as catheters. Unless otherwise stated, the staphylococci were cultured and maintained on Mueller-Hinton Medium (agar and broth) at pH 7.2; cultures were incubated aerobically at 37° C. for 19-20 hours, at pH 7 (±0.2). (b) C. striatum NCTC 764. Corynebacterium striatum is closely related to organisms (aerobic diphtheroids of the genus Corynebacterium) that cause body odour. It was cultured and maintained on Mueller-Hinton medium (agar and broth). All cultures were incubated aerobically at 37° C. for 72 hours, at pH 7 (±0.2). (c) streptococci. The strains tested were S. mutans ATCC 25175 and S. pyogenes ATCC 12344. S. mutans is a Gram-positive, microaerophilic bacterium which plays a significant role in dental caries and in infective endocarditis. Streptococcus pyogenes is associated with skin, soft tissue, burn and wound infections. S. mutans was cultured and maintained on Wilkins-Chalgren Anaerobe medium+1 g/L glucose (agar and broth); it was incubated in air at 37° C. for 48 hours, at pH 7 (±0.2) with 5% carbon dioxide. S. pyogenes was cultured and maintained on Mueller-Hinton medium (broth and agar) and was incubated under the same conditions as S. mutans.
This assay, normally carried out after an MIC assay, determines the minimum concentration of a compound that is lethal to the micro-organism being tested.
These samples were then individually sub-cultured on antibiotic-free agar medium, under the incubation conditions described above. Following incubation they were examined visually for microbial growth. […]

S. mutans ATCC 25175 [1] = assay: MIC assay; type: cell-based, Streptococcus mutans; settings: Wilkins-Chalgren broth pH 7 (±0.2)
Procedure: This is a standard international method for quantitatively assessing the antimicrobial activity of a compound in a liquid medium. The method used a sterile 96-well microtitre plate, capable of holding about 200 μl of liquid per well. […] The culture medium was as described above.
The wells were inoculated with a liquid suspension of freshly grown micro-organism and incubated under the conditions described above. After incubation, the microtitre plate was examined visually (with the aid of a light box) for cloudiness in each well, which would indicate microbial growth. The MIC value was recorded as the lowest concentration of test compound required to inhibit microbial growth, ie the lowest concentration for which the liquid in the well remained clear.
The assays included both negative (culture medium with no micro-organisms) and positive (culture medium plus diluting solvent plus micro-organism) controls.

S. mutans ATCC 25175 [2] = assay: Disc diffusion assay (DDA); type: cell-based, Streptococcus mutans; settings: 200 μg per disc, 48 hours at 37° C., 5% carbon dioxide, single plates
Text: (a) staphylococci. The Staphylococcus aureus strain used was ATCC 29213. S. aureus and other staphylococci are common causes of a wide range of skin, skin structure and wound infections; S. aureus is also known to exacerbate eczema. The ATCC 29213 strain is known to be susceptible to beta-lactam antibiotics such as methicillin. The Staphylococcus epidermidis strain used was NCTC 11047. Staph. epidermidis forms part of the resident flora of skin and is an opportunistic pathogen which can cause biofilms to grow for instance on plastic surgical implants such as catheters. Unless otherwise stated, the staphylococci were cultured and maintained on Mueller-Hinton Medium (agar and broth) at pH 7.2; cultures were incubated aerobically at 37° C. for 19-20 hours, at pH 7 (±0.2). (b) C. striatum NCTC 764. Corynebacterium striatum is closely related to organisms (aerobic diphtheroids of the genus Corynebacterium) that cause body odour. It was cultured and maintained on Mueller-Hinton medium (agar and broth). All cultures were incubated aerobically at 37° C. for 72 hours, at pH 7 (±0.2). (c) streptococci. The strains tested were S. mutans ATCC 25175 and S. pyogenes ATCC 12344. […] The diameter of this zone of “inhibition” was measured using a ProtoCOL™ automated zone sizer (Synbiosis, Cambridge, UK). […]

Row | Compound | MBC (C. striatum NCTC 764; Corynebacterium striatum, NCTC764, read-out: MBC) [µg/mL] | MIC (S. mutans ATCC 25175 [1]; Streptococcus mutans, ATCC25175, read-out: MIC) [µg/mL] | zone of inhibition at 200 µg/disc (S. mutans ATCC 25175 [2]; Streptococcus mutans, ATCC25175, read-out: DDA zone diameter) [mm] | MBC (C. striatum NCTC 764) [µg/mL] | MIC (S. mutans ATCC 25175 [1]) [µg/mL] | DDA zone diameter (S. mutans ATCC 25175 [2]) [mm]
1 | CC(=O)c1c(O)c(C)c(O)c2c1OC1=CC(=O)C(C(C)=O)C(=O)C12C (stereo not drawn) [Usnic acid, 2,6-diacetyl-7,9-dihydroxy-8,9b-dimethyl-1,3(2H,9bh)-dibenzofurandione] | 62.5 (≈ 182 µM) | 3.9 (≈ 11.3 µM) | 31.2 | – | – | –
2 | CC(=O)c1c([O-])c(C)c([O-])c2c1OC1=CC(=O)C(C(C)=O)C(=O)C12C.[Cu+2] (stereo not drawn) [Copper usnate, copper (II) usnate] | – | – | – | 62.5 | 1.95 | 32.4
